Like-named read-outs stand apart in the source and are kept apart here.
Key:
[1] = biological target: human TLR9 (Homo sapiens (Human), UniProt Q9NR96); experiment: TLR9 inhibition reporter assay (HEK-Blue cells, SEAP reporter, ODN2006 stimulation);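 also: compounds tested over 0.05 nM to 50 µM, 22 h incubation, inhibition taken as SEAP signal drop from agonist plus DMSO wells toward a known inhibitor control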
[2] = biological target: human TLR7 (Homo sapiens (Human), UniProt Q9NYK1); experiment: TLR7 inhibition reporter assay (HEK-Blue cells, SEAP reporter, gardiquimod stimulation); format: cell-based
[3] = read-out: TLR9 IC50, HEK-Blue cells overexpressing human TLR9, ODN2006 5 nM
[4] = HEK-Blue cells overexpressing human TLR7, gardiquimod 7.5 μM
[5] = read-out: TLR9 IC50, HEK-Blue cells, ODN2006 5 nM
[6] = HEK-Blue cells, gardiquimod 7.5 μM

human TLR9, sequence (Q9NR96 26-1032): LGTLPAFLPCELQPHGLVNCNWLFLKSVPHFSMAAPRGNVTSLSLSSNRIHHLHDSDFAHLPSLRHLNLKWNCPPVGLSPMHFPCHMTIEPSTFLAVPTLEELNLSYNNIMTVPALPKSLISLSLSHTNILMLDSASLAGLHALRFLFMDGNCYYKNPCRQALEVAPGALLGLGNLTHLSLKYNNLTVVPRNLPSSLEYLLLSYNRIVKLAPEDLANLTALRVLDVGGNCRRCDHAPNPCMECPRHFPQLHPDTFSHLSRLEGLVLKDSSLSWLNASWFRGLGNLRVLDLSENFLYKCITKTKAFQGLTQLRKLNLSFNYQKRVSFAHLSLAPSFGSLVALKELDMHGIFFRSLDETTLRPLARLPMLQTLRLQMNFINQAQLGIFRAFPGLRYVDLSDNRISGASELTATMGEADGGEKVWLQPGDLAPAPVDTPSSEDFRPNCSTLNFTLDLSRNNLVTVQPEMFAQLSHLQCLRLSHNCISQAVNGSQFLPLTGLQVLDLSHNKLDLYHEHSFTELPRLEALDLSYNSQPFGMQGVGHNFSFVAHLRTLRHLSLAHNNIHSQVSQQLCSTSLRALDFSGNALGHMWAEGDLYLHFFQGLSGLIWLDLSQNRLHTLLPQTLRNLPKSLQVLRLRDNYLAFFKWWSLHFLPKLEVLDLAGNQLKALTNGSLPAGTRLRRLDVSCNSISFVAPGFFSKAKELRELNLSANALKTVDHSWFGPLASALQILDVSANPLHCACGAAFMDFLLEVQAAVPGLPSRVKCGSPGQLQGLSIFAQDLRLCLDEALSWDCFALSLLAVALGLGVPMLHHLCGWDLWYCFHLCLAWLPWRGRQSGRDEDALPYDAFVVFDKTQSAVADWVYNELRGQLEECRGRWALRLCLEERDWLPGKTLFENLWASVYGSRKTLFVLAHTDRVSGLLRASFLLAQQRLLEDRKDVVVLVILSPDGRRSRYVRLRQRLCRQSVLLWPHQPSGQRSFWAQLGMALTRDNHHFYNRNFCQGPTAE
human TLR7, sequence (Q9NYK1 27-1049): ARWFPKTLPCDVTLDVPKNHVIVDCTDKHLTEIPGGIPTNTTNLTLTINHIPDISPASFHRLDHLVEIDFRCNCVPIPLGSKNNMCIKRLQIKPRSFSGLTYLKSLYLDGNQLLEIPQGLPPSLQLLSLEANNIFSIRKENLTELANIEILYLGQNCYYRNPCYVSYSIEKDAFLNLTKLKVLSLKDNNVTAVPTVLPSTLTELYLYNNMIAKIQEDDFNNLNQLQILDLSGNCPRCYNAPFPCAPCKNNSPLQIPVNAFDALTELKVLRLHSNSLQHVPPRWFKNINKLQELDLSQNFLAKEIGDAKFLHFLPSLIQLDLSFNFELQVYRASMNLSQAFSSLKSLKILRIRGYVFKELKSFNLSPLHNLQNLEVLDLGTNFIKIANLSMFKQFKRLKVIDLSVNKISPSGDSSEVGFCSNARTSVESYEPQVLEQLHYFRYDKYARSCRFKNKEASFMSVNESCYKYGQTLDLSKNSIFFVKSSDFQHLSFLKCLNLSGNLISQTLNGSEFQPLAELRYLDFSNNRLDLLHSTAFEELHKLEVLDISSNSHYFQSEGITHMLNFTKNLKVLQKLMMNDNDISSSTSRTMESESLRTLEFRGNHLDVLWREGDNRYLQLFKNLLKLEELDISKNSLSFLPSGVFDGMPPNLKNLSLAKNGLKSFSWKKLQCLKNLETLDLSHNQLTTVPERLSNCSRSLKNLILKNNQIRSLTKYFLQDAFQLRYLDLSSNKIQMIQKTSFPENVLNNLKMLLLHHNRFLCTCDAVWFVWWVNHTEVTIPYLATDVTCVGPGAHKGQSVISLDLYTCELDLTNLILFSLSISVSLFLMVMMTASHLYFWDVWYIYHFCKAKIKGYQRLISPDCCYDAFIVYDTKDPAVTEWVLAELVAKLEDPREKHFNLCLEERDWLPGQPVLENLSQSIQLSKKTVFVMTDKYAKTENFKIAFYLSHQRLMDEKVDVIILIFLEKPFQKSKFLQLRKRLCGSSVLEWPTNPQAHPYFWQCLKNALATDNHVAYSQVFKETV

Structure (SMILES)	IC50 [1, 3] [nM]	IC50 [2, 4] [nM]	IC50 [1, 5] [nM]	IC50 [2, 6] [nM]
Cc1nc(C)c(C)c(-c2[nH]c3ccc(C4CCNCC4)cc3c2C(C)C)c1C [Example 43, 3-isopropyl-5-(piperidin-4-yl)-2-(2,3,5,6-tetramethylpyridin-4-yl)-1H-indole]	546	278	–	–
CCc1c(-c2ccncc2)[nH]c2ccc(C3CCN(Cc4cccn4C)CC3)cc12 [Example 805, 3-ethyl-5-(1-((1-methyl-1H-pyrrol-2-yl)methyl)piperidin-4-yl)-2-(pyridin-4-yl)-1H-indole]	1210	610	–	–
Cc1cc(-c2[nH]c3cc(C)c(C4CCNCC4)cc3c2C(C)C)ccn1 [Example 75, 3-isopropyl-6-methyl-2-(2-methylpyridin-4-yl)-5-(piperidin-4-yl)-1H-indole]	180	5	–	–
CC(C)c1c(-c2ccncc2)[nH]c2ccc(C3CCNCC3)cc12 [Example 38, 3-isopropyl-5-(piperidin-4-yl)-2-(pyridin-4-yl)-1H-indole]	2150	38.4	–	–
CNCCN1CCC(c2ccc3[nH]c(-c4ccnc(C(F)(F)F)c4)c(C)c3c2)CC1 [Example 747, N-methyl-2-(4-(3-methyl-2-(2-(trifluoromethyl)pyridin-4-yl)-1H-indol-5-yl)piperidin-1-yl)ethan-1-amine]	525	410	–	–
CNCCN1CCC(c2ccc3[nH]c(-c4ccnc(OC)c4)c(CC4CC4)c3c2)CC1 [Example 784, 2-(4-(3-(cyclopropylmethyl)-2-(2-methoxypyridin-4-yl)-1H-indol-5-yl)piperidin-1-yl)-N-methylethan-1-amine]	685	94	–	–
CCc1c(-c2ccncc2)[nH]c2ccc(C3CCN(C4CCN(C)CC4)CC3)cc12 [Example 806, 3-ethyl-5-(1′-methyl-[1,4′-bipiperidin]-4-yl)-2-(pyridin-4-yl)-1H-indole]	365	1210	–	–
CCN1CCC(N2CCC(c3ccc4[nH]c(-c5ccncc5)c(C)c4c3)CC2)CC1 [Example 841, 5-(1′-ethyl-[1,4′-bipiperidin]-4-yl)-3-methyl-2-(pyridin-4-yl)-1H-indole]	–	–	87	492
Cc1cc(-c2[nH]c3ccc(C4CCNCC4)cc3c2C(C)C)cc(C2CC2)n1 [Example 478, 2-(2-cyclopropyl-6-methylpyridin-4-yl)-3-isopropyl-5-(piperidin-4-yl)-1H-indole]	1330	10.2	–	–
CC(C)c1c(-c2ccnc(C(F)(F)F)c2)[nH]c2ccc(C3CCNCC3)cc12 [Example 6, 3-isopropyl-5-(piperidin-4-yl)-2-(2-(trifluoromethyl)pyridin-4-yl)-1H-indole]	1480	28.2	–	–
COc1cc(-c2[nH]c3ccc(C4CCNCC4)cc3c2C(C)C)cc(C)n1 [Example 46, 3-isopropyl-2-(2-methoxy-6-methylpyridin-4-yl)-5-(piperidin-4-yl)-1H-indole]	2340	1.5	–	–
Cc1cc(-c2[nH]c3ccc(C4CCN(C(=O)c5ccncc5)CC4)cc3c2C(C)C)cc(C)n1 [Example 113]	15700	–	–	–
CCc1c(-c2ccnc(C)c2)[nH]c2cc(F)c(C3CCNCC3)c(F)c12 [Example 83, 3-ethyl-4,6-difluoro-2-(2-methylpyridin-4-yl)-5-(piperidin-4-yl)-1H-indole]	–	11	–	–
CCc1c(-c2ccnc(OC(F)F)c2)[nH]c2ccc(C3CCN(C4CCN(CC(C)C)CC4)CC3)cc12 [Example 774, 2-(2-(difluoromethoxy)pyridin-4-yl)-3-ethyl-5-(1′-isobutyl-[1,4′-bipiperidin]-4-yl)-1H-indole]	663	3700	–	–
CNCCN1CCC(c2ccc3[nH]c(-c4ccnc(OC)c4)c(C)c3c2)CC1 [Example 777, 2-(4-(2-(2-methoxypyridin-4-yl)-3-methyl-1H-indol-5-yl)piperidin-1-yl)-N-methylethan-1-amine]	–	515	–	–
CCc1c(-c2ccnc(OC(F)F)c2)[nH]c2ccc(C3CCN(C4CCN(CC(C)C)CC4)CC3)cc12 [Example 775, 2-(2-(difluoromethoxy)pyridin-4-yl)-3-ethyl-5-(1′-isobutyl-[1,4′-bipiperidin]-4-yl)-1H-indole]	379	5660	–	–
CCc1c(-c2ccncc2)[nH]c2ccc(C3CCN(CCNC)CC3)cc12 [Example 808, 2-(4-(3-ethyl-2-(pyridin-4-yl)-1H-indol-5-yl)piperidin-1-yl)-N-methylethan-1-amine]	–	–	610	679
CNCCN1CCC(c2ccc3[nH]c(-c4ccncc4)c(C)c3c2)CC1 [Example 776, N-methyl-2-(4-(3-methyl-2-(pyridin-4-yl)-1H-indol-5-yl)piperidin-1-yl)ethan-1-amine]	–	545	–	–
CNCCN1CCC(c2ccc3[nH]c(-c4cc(OCCOC)ncc4F)c(C)c3c2)CC1 [Example 749, 2-(4-(2-(5-fluoro-2-(2-methoxyethoxy)pyridin-4-yl)-3-methyl-1H-indol-5-yl)piperidin-1-yl)-N-methylethan-1-amine]	640	4830	–	–

Structure (SMILES)	IC50 [1, 3] [nM]	IC50 [2, 4] [nM]	IC50 [1, 5] [nM]	IC50 [2, 6] [nM]
CCc1cc(-c2[nH]c3ccc(C4CCNCC4)cc3c2C(C)C)cc(C)n1 [Example 479, 2-(2-ethyl-6-methylpyridin-4-yl)-3-isopropyl-5-(piperidin-4-yl)-1H-indole]	3400	98.4	–	–
CCc1cc(-c2[nH]c3ccc(C4CCN(CCNC)CC4)cc3c2C)ccn1 [Example 748, 2-(4-(2-(2-ethylpyridin-4-yl)-3-methyl-1H-indol-5-yl)piperidin-1-yl)-N-methylethan-1-amine]	95	495	–	–
CC(C)c1c(-c2ccnc(C3CC3)c2)[nH]c2ccc(C3CCNCC3)cc12 [Example 483, 2-(2-cyclopropylpyridin-4-yl)-3-isopropyl-5-(piperidin-4-yl)-1H-indole]	1440	46.2	–	–
CNCCN1CCC(c2ccc3[nH]c(-c4ccnc(OC)c4)c(C(C)C)c3c2)CC1 [Example 783, 2-(4-(3-isopropyl-2-(2-methoxypyridin-4-yl)-1H-indol-5-yl)piperidin-1-yl)-N-methylethan-1-amine]	1010	55.1	–	–
Cc1c(-c2ccncc2)[nH]c2ccc(C3CCN(C4CCN(C)CC4)CC3)cc12 [Example 842, 3-methyl-5-(1′-methyl-[1,4′-bipiperidin]-4-yl)-2-(pyridin-4-yl)-1H-indole]	–	–	93	388
COc1cc(-c2[nH]c3ccc(C4CCN(C5CCN(C)CC5)CC4)cc3c2C)ccn1 [Example 838, 2-(2-methoxypyridin-4-yl)-3-methyl-5-(1′-methyl-[1,4′-bipiperidin]-4-yl)-1H-indole]	–	–	613	581
Cc1cc(-c2[nH]c3ccc(C4CCNCC4)c(F)c3c2C(C)C)cc(C)n1 [Example 77, 2-(2,6-dimethylpyridin-4-yl)-4-fluoro-3-isopropyl-5-(piperidin-4-yl)-1H-indole]	344	0.5	–	–
CCc1c(-c2ccnc(NC)c2)[nH]c2ccc(C3CCN(C4CCN(CC(C)C)CC4)CC3)cc12 [Example 771, 4-(3-ethyl-5-(1′-isobutyl-[1,4′-bipiperidin]-4-yl)-1H-indol-2-yl)-N-methylpyridin-2-amine]	169	3370	–	–
CNCCN1CCC(c2ccc3[nH]c(-c4ccnc(F)c4)c(C)c3c2)CC1 [Example 750, 2-(4-(2-(2-fluoropyridin-4-yl)-3-methyl-1H-indol-5-yl)piperidin-1-yl)-N-methylethan-1-amine]	270	332	–	–
CCNc1cc(-c2[nH]c3ccc(C4CCN(C5CCN(CC(C)C)CC5)CC4)cc3c2CC)ccn1 [Example 772, N-ethyl-4-(3-ethyl-5-(1′-isobutyl-[1,4′-bipiperidin]-4-yl)-1H-indol-2-yl)pyridin-2-amine]	205	9850	–	–
CCc1c(-c2ccnc(OC)c2)[nH]c2ccc(C3CCN(C4CCN(C5CC5)CC4)CC3)cc12 [Example 788, 5-(1′-cyclopropyl-[1,4′-bipiperidin]-4-yl)-3-ethyl-2-(2-methoxypyridin-4-yl)-1H-indole]	611	356	–	–
CCN1CCC(N2CCC(c3ccc4[nH]c(-c5ccnc(OC)c5)c(C)c4c3)CC2)CC1 [Example 839, 5-(1′-ethyl-[1,4′-bipiperidin]-4-yl)-2-(2-methoxypyridin-4-yl)-3-methyl-1H-indole]	–	–	4440	689
Cc1cc(-c2[nH]c3cc(F)c(C4CCNCC4)cc3c2C(C)C)ccn1 [Example 73, 6-fluoro-3-isopropyl-2-(2-methylpyridin-4-yl)-5-(piperidin-4-yl)-1H-indole]	4720	4.4	–	–
COc1cc(-c2[nH]c3ccc(C4CCN(C5CCN(C(C)C)CC5)CC4)cc3c2C)ccn1 [Example 840, 5-(1′-isopropyl-[1,4′-bipiperidin]-4-yl)-2-(2-methoxypyridin-4-yl)-3-methyl-1H-indole]	–	–	379	466
CCc1c(-c2ccnc(C)c2)[nH]c2ccc(C3CCNCC3)c(C)c12 [Example 82, 3-ethyl-4-methyl-2-(2-methylpyridin-4-yl)-5-(piperidin-4-yl)-1H-indole]	–	7.3	–	–
CC(C)c1c(-c2ccncc2CO)[nH]c2ccc(C3CCNCC3)cc12 [Example 19, (4-(3-isopropyl-5-(piperidin-4-yl)-1H-indol-2-yl)pyridin-3-yl)methanol]	1860	124	–	–
CCc1c(-c2ccnc(OC)c2)[nH]c2ccc(C3CCN(C4CCNCC4)CC3)cc12 [Example 787, 5-([1,4′-bipiperidin]-4-yl)-3-ethyl-2-(2-methoxypyridin-4-yl)-1H-indole]	480	459	–	–
CCc1c(-c2ccnc(C)c2)[nH]c2ccc(C3CCNCC3)cc12 [Example 63, 3-ethyl-2-(2-methylpyridin-4-yl)-5-(piperidin-4-yl)-1H-indole]	329	27.7	–	–

From patent US10660877B2 (BRISTOL-MYERS SQUIBB COMPANY, priority 2016, dated 2020)
